# In US8017755B2, “RNA-based transcriptional regulators” (President and Fellows of Harvard College, priority 2003, dated 2011):
# Assays:
# [1] = system: S. cerevisiae cell wall; details: cited from earlier work
# [2] = molecular target: TMR-binding aptamer; details: cited from earlier work
# [3] = system: S. cerevisiae; assay: Growth of yeast cultures in varying TMR concentrations; details: 10 μM TMR
# [4] = system: yeast; details: cited from earlier work
# [5] = Gal4-VP16 fusions versus intact Gal4; cited from earlier work
# [6] = system: HIS3 gene; assay: Survival on media lacking histidine in strain L40-ura3, which lacks the LexA-MS2 fusion protein; type: cell-based, S. cerevisiae
# From the text: To test whether the evolved RNAs require the MS2 protein-mediated localization to the LexA promoter, we introduced the plasmids expressing two representative active clones (m26-11 and m26-15) into the yeast strain L40-ura3 which lacks the LexA-MS2 fusion protein but is otherwise identical to YBZ-1 (Bernstein, D. S., Buter, N., Stumpf, C., and Wickens, M. (2002). Analyzing mRNA-protein complexes using a yeast three-hybrid system. Methods 26, 123-141).
# Media consisted of yeast nitrogen base (Sigma), 4% dextrose, and synthetic drop out supplements lacking histidine or histidine and uracil (Clontech). Yeast were cultured either in liquid medium or on agar plates at 30° C. S. cerevisiae strains YBZ-1 (MATa, ura3-52, leu2-3, 112, his3-200, trp1-1, ade2, LYS2::(LexA op)-HIS3, ura3::(LexA op)-LacZ, LexA-MS2-MS2 coat (N55K)) and L40-ura3 (MATa, ura3-52, leu2-3112, his3Δ200, trp1Δ1, ade2, LYS2::(LexA op)-HIS3, ura3::(LexA op)-LacZ) were a gift from Professor Marvin Wickens (Bernstein, D. S., Buter, N., Stumpf, C., and Wickens, M. (2002). Analyzing mRNA-protein complexes using a yeast three-hybrid system. Methods 26, 123-141).
compound,measurement,setting,value
"CN(C)c1ccc2c(-c3ccc(CCl)cc3)c3ccc(=[N+](C)C)cc-3oc2c1 [TMR, tetramethylrosamine]",crossing of the S. cerevisiae cell wall,[1],cross the S. cerevisiae cell wall
same,Kd,[2],40 nM
same,growth inhibition of yeast,[3],Slight growth inhibition
same,concentration non-toxic to yeast,[4],up to 1 μM
VP16,"transcriptional activation, fold more potent than Gal4",[5],100 fold
"m26-15: evolved N40-26 variant SEQ ID NO: 28 CGCGGACCAAUGGU-CCCCCAAGUGGAUGCCUAAGCCUCUU (DNA CGCGGACCAAUGGUCCCCCAAGUGGAUGCCUAAGCCUCUU; listed as RNA, chemistry not given here)",survival on media lacking histidine without LexA-MS2 fusion protein,[6],unable to survive
